# Patent US10434134B2, “Peptide treatment for inflammation and fibrosis” (The Regents of the University of California, priority 2015, dated 2019)
# Where a SMILES comes first, the peptide text is derived from it. Where no end group is shown, it is not given here. [ ]: non-standard residue; d: D form. Mpa = O=C(O)CCS
# Legend:
# [1] = Plasma levels of peptide and MPR-intermediate after IV PEGylated-peptide 361332; assay type: in vivo; conditions: CD-1 mouse, n = 1
# From the text: Studies using the PEGylated-peptide 361332 are provided
# Levels of Peptide and MPR-Intermediate in Plasma Samples
# [2] = test system: Human Activated Liver Myofibroblasts; experiment: Cell death of activated primary human liver myofibroblasts in culture; assay type: cell-based; parameters: concentration or dose not given beside the values
# From the text: (§1) Assays were used in a step-wise manner to select the safest and most efficient peptides (including apoptosis assays in activated primary human liver myofibroblasts; cell-free caspase 8 activation assays; acute liver injury/fibrogenesis models; toxicology assays in highly differentiated, primary human hepatocyte cultures and in mice).
# [3] = test system: primary mouse and human hepatocytes
# From the text: as §1
# Mouse toxicity (in vivo) = conditions: for Mouse Toxicity (in vivo): 20 mg/kg
# From the text: as §1
# [4] = test system: Mouse Activated Liver Myofibroblasts; experiment: Cell death of activated primary mouse liver myofibroblasts in culture; assay type: cell-based
# [5] = test system: Bleomycin-induced lung fibrosis in C/EBPβ-wt mice; experiment: Bleomycin mouse model of lung fibrosis, various administration routes (Example 11); assay type: in vivo; conditions: for decrease in lung fibrosis: days 10, 17 and 24
# Procedure: C/EBPβ-wt mice received Bleomycin administration as described above. On day-10, once the fibrotic reaction is established, mice received i) PEG-30 kDa-Lys-DAla-DVal-Asp-NH2 intraperitoneally (IP) 10 μg of peptide linked to PEG, on days 10, 17 and 24); or ii) peptide PEG-30 kDa-Lys-DAla-DVal-Asp-NH2 by inhalation (mean particle size […]—which reaches efficiently the alveoli-, 800 μg of peptide on days 10, 17 and 24; specific inhalation parameters are shown in Table 2). The peptide was administered for less than 1 hour a day [on days 10, 17, and […]] via nose-only inhalation of the test material aerosol at a nominal concentration of 1.0 mg/L [800 μg/dose]; or iii) peptide PEG-30 kDa-Lys-DAla-DVal-Asp-NH2 by intratracheal instillation (40 μg of peptide on days 10, 17 and 24).
# Control groups received sterile water instead of Bleomycin; peptide IP; peptide by inhalation; or peptide by intratracheal instillation. Animals were sacrificed on day 27. The left lung was inflated with fixative, analyzed by trichrome stain and quantified in its entirety by the Odyssey Visualization microscopy software protocol to minimize analytical errors as described previously (Ramamoorthy et al., 2009, American Journal of Physiology, Endocrinology and Metabolism 297: e392-401). The right lung was snap frozen in liquid nitrogen and used for IMH, immunoblots and qRT-PCR.
# [6] = test system: CCl4-induced acute liver injury in mice; experiment: Acute CCl4 liver injury and activation of liver myofibroblasts in mice (Example 1); assay type: in vivo, mouse; parameters: serum ALT: unit not given here; conditions: for minimizing acute liver injury and activation of myofibroblasts: compared with the lead PEG peptide
# Procedure: FIG. 1. The therapeutic lead peptide inhibits the activation of liver myofibroblasts and liver injury that induces fibrosis following exposure to the human hepatotoxin CCl4. A single dose of CCl4 was administered to C/EBPβ-wt mice (4). Eight hours later, animals received an IP injection of the therapeutic lead peptide (5 μg of peptide linked to PEG). Animals were sacrificed at 30 hr after the CCl4 administration. The animals receiving only CCl4 had intense activation of myofibroblasts (as determined by α-SMA) (upper row) and severe liver injury (as assessed by standard clinical examination just before sacrifice); the lead peptide blocked the discoloration and granular appearance of severe liver injury. The livers of treated mice were similar to control (second row). The histopathology induced by CCl4 was activation of myofibroblasts (α-SMA), severe liver injury (H&E stain) with collapse of the architecture (Reticulin stain). The therapeutic PEG-30 kDa-peptide decreased both the activation of myofibroblasts and the injury to the liver.
# To induce acute liver injury, a single dose of the human hepatotoxin Carbon Tetrachloride (CCl4) was administered to normal mice (4). Eight hours later, animals received an IP injection of the lead therapeutic PEG-30 kDa-peptide (5 μg of the peptide linked [peptide to PEG at 1:60] to the PEG-30 kDa). Animals were sacrificed after 30 hr, at the peak of hepatocyte death as measured by ALT (a clinical end-point used routinely in clinical practice and by the FDA in the evaluation of liver toxicity in human drug studies) (16). […] There was severe acute liver injury in animals receiving CCl4 but mild-to-moderate injury in animals receiving both CCl4 and the lead therapeutic compound (FIG. 1).
# [7] = test system: CCl4-induced liver fibrosis in mice; experiment: Chronic 16-wk CCl4 mouse model of liver fibrosis (Example 2); assay type: in vivo; conditions: for decrease of liver fibrosis / Liver fibrosis, quantification of the Sirius stain (percentage fibrosis/area): CCl4 16-wk; for decrease of liver fibrosis: 7 μg IP once per week from week-8; for Liver fibrosis, quantification of the Sirius stain (percentage fibrosis/area): 7 μg peptide linked to 420 μg PEG-30 kDa once a week from week-8, n=6/group
# Procedure: FIGS. 2A-2B. High efficacy of the therapeutic PEG-30 kDa-peptides in a chronic mouse model of liver fibrosis. All groups of mice (except control) received CCl4 administration for 16-wk (n=6/group). The CCl4 treatment group received only the hepatotoxin, while the other groups also received the indicated therapeutic PEG-30 kDa-peptide (7 μg of peptide linked to 420 μg PEG-30 kDa once a week) starting at week-8. FIG. 2A. Liver fibrosis was determined by quantification of the Sirius stain (percentage fibrosis/area) as described (7; 25): control (0.02+/−0.01); lead peptide (0.8+/−0.7); alternate peptide 1 (2.1+/−1.0); alternate peptide 2 (3.5+/−1.2) and CCl4 (6.7+/−1.6%). P<0.0001 for lead peptide 1 and P<0.001 for alternate peptides 1 and 2. FIG. 2B. Liver fibrosis was detected histologically by the trichrome stain for liver fibrosis as it is the clinical standard. The control animals (receiving only vehicle control) had negligible fibrosis (stage 0-1/VI); animals receiving CCl4 for 16 weeks developed severe fibrosis (stage 5/VI or 6/VI; which would be clinically significant in patients); while animals receiving CCl4 for 16 weeks and also the lead PEG-30 kDa-peptide 1 starting at week-8 had minor fibrosis (stage 1-2/VI; which would not be clinically significant in patients).
# The therapeutic lead PEG-peptides underwent a systematic analysis of efficacy and safety in a classical chronic liver fibrosis model (7; 15; 24; 38). CCl4 (a human hepatotoxin) was administered to mice for 16-wk as a classical model of liver fibrosis (7). The three selected therapeutic PEG-peptides were administered once a week IP (7 μg of peptide linked to PEG) starting at week 8, once severe liver fibrosis was already established. The efficacy of the three selected PEG peptides included quantitative analysis of liver fibrosis (7). CCl4 administration to mice for 16-wk induced liver cirrhosis (FIGS. 2A and 2B). […] This mimics the treatment given for several years to a patient with established severe liver fibrosis.
# The Ac-Lys-D-Ala-D-Val-Asp-NH2 was administered IP (7 μg of peptide linked to PEG-30 kDa) once/week for an additional 4 or 8 weeks. The CCl4 administration continued for 4 or 8 weeks. The Ac-Lys-D-Ala-D-Val-Asp-NH2 peptide inhibited liver fibrosis by 8-fold.
# The parent peptide inhibited liver fibrosis by only 2 to 3-fold.
# [8] = liver, 30 hr after CCl4, single IP 5 μg at 8 hr
compound,measurement,setting,value
CC(C)[C@@H](NC(=O)[C@@H](C)NC(=O)[C@H](CCCCN)NC(=O)CCS)C(=O)N[C@@H](CC(=O)O)C(N)=O [Mpr-Lys-DAla-DVal-Asp-NH2] ([Mpa]K[dA][dV]D-NH2),Conc. (ng/mL) in plasma,"[1]; 4 hours after IV PEGylated-peptide 361332, 7.5 mg/kg peptide equivalent",1291 ng/mL
same,Conc. (ng/mL) in plasma,"[1]; 8 hours after IV PEGylated-peptide 361332, 7.5 mg/kg peptide equivalent",900 ng/mL
same,Conc. (ng/mL) in plasma,"[1]; 24 hours after IV PEGylated-peptide 361332, 7.5 mg/kg peptide equivalent",921 ng/mL
same,Conc. (ng/mL) in plasma,"[1]; 48 hours after IV PEGylated-peptide 361332, 7.5 mg/kg peptide equivalent",1523 ng/mL
"Ac-Lys-Ala-Val-Asp-NH2 (Ac-KAVD-NH2) [Parent peptide, reference compound]",Human Activated Liver Myofibroblasts Death Cell (%),[2],80.9%
same,Hepatocyte Toxicity [20 ng/ml],[3],No toxicity
same,Mouse Toxicity (in vivo),Mouse toxicity (in vivo),No:
same,toxicity issues observed in mice,"Mouse toxicity (in vivo); mouse, in vivo",no toxicity issues
same,Mouse Activated Liver Myofibroblasts Death Cell (%) [20 ng/ml],[4],89.5%
PEG-30 kDa-Lys-DAla-DVal-Asp-NH2 [Lead therapeutic peptide],Human Activated Liver Myofibroblasts Death Cell (%),[2],86.2%
same,inhibition in lung alveolar epithelial cell apoptosis,[5]; IP,~60%
same,surfactant protein-C (SFPC) expression by quantitative IHC,[5]; IP,essentially normal
same,decrease in lung fibrosis,[5]; IP 10 μg of peptide linked to PEG,~60%
same,lung inflammation as determined by the expression of IL-23R (marker of Th-17 cells),"[5]; all treatments (IP, inhalation, intratracheal)",decreased
same,improvement of Tidal Volume,"[5]; all treatments (IP, intratracheal instillation, inhalation), 14-day treatment",> 35%
same,inhibition in lung alveolar epithelial cell apoptosis,[5]; inhalation,~60%
same,surfactant protein-C (SFPC) expression by quantitative IHC,[5]; inhalation,essentially normal
same,decrease in lung fibrosis,[5]; inhalation 800 μg of peptide,~60%
same,efficacy on lung fibrosis,"[5]; intratracheal instillation 40 μg of peptide, days 10, 17 and 24 (therapeutic positive control)",outstanding efficacy
same,TGFβ1 by RT-PCR,[5]; three peptide formulations,decreased
same,collagen α 1 by RT-PCR,[5]; three peptide formulations,decreased
same,serum ALT,"[6]; 30 hr after CCl4, single IP treatment (5 μg peptide linked to PEG-30 kDa) 8 hr after CCl4","6,754+/−905"
same,acute liver injury severity,"[6]; CCl4 plus peptide, 30 hr",mild-to-moderate
same,expression of α-SMA in the liver (activated liver myofibroblasts),"[6]; CCl4 plus peptide, 30 hr",minor expression
same,IL-6 mRNA,[6]; [8],normal
same,"TNF-α mRNA, increase from control values",[6]; [8],4 fold
same,"albumin mRNA, decrease from control values",[6]; [8],2 fold
same,Hepatocyte Toxicity [20 ng/ml],[3],No toxicity
same,decrease of liver fibrosis,[7],> 8 fold
same,"Liver fibrosis, quantification of the Sirius stain (percentage fibrosis/area)",[7],0.8+/−0.7%
same,"Liver fibrosis stage, trichrome stain","[7]; CCl4 16 weeks, peptide starting at week-8",1-2 /VI
same,Mouse Toxicity (in vivo),Mouse toxicity (in vivo),No:
same,Mouse Activated Liver Myofibroblasts Death Cell (%) [20 ng/ml],[4],90.5%
Peg-30kDa-Lys-Ala-DVal-Asp-NH2 [Alternate therapeutic peptide 2],Human Activated Liver Myofibroblasts Death Cell (%),[2],72.3%
same,minimizing acute liver injury and activation of myofibroblasts,[6],performed similarly to the lead PEG peptide
same,Hepatocyte Toxicity [20 ng/ml],[3],No toxicity
same,decrease of liver fibrosis,[7],~2 fold
same,"Liver fibrosis, quantification of the Sirius stain (percentage fibrosis/area)",[7],3.5+/−1.2%
same,Mouse Activated Liver Myofibroblasts Death Cell (%) [20 ng/ml],[4],57.1%
Peg-30kDa-Lys-DAla-Val- Asp-NH2 [Alternate therapeutic peptide 1],Human Activated Liver Myofibroblasts Death Cell (%),[2],67.9%
same,minimizing acute liver injury and activation of myofibroblasts,[6],performed similarly to the lead PEG peptide
same,Hepatocyte Toxicity [20 ng/ml],[3],No toxicity
same,decrease of liver fibrosis,[7],~3 fold
same,"Liver fibrosis, quantification of the Sirius stain (percentage fibrosis/area)",[7],2.1+/−1.0%
same,Mouse Activated Liver Myofibroblasts Death Cell (%) [20 ng/ml],[4],79.9%
[dK]AV[dD]-NH2,Human Activated Liver Myofibroblasts Death Cell (%),[2],44.0%
[dK]A[dV]D-NH2,Human Activated Liver Myofibroblasts Death Cell (%),[2],30.6%
